The values below come from US20260306527A1, “PRMT INHIBITOR COMPOUNDS AND THE USES THEREOF” (Purdue Research Foundation, priority 2023, published 2026).

Bounds are passed on as bounds.

What all share (format): biochemical
Assay [1] addresses T1, PRMT4 (Homo sapiens, UniProt Q86X55).
T1 sequence (Q86X55 1-608): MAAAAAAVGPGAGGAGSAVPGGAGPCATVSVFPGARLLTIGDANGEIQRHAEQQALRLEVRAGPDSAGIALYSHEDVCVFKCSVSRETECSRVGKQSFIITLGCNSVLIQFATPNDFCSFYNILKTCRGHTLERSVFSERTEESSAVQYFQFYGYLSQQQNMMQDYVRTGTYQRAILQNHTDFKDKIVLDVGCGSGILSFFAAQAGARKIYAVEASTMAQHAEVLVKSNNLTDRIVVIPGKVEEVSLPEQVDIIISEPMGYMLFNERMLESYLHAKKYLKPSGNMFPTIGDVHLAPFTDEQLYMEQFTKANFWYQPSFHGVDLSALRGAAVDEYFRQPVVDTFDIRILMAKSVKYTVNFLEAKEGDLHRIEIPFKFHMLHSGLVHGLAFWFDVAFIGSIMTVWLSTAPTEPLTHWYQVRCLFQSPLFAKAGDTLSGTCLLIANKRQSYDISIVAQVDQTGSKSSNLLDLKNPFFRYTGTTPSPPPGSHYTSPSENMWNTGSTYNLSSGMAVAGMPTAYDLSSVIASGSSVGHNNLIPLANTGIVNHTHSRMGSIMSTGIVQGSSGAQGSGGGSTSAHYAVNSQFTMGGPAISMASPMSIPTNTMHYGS
The assay is described as follows: radioactive assay (Reaction Biology Corp.), inhibition of PRMT4. The protocol: (§1) Next, the inhibition activity of the library was investigated for five PRMT members from type I PRMTs.
(§2) The PRMT 4, 6 and 8 methylation assays were performed by Reaction Biology corp.

In assay [2] the test system is PRMT4. The description is as above. The protocol: as §1, §2
Assay [3] addresses PRMT8 (Homo sapiens, UniProt Q9NR22). As to the kind of experiment: radioactive assay (Reaction Biology Corp.), inhibition of PRMT8. The protocol:
as §1, §2

Assay [4] has as its system PRMT3/4/5. As to the kind of experiment: inhibition of PRMT3/4/5 (summary). The following applies: range over PRMT3/4/5. The protocol:
The selectivity of compounds YD1113 and YD1290 on PRMTs were performed by Reaction Biology Corp.

Assay [5] deals with PRMT3. The assay is described as follows: SAHH-coupled fluorescence assay, inhibition of PRMT3. The following applies: read-out: IC50 [µM] | PRMT3. Summed up: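 Coupled SAHH/ThioGlo4 fluorescence read-out (ex 380 nm, em 505 nm) of PRMT3 (0.25 μM) methylation with 30 μM AdoMet and 5 μM SAHH. Buffer was 20 mM Tris pH 7.5 with 0.01% Triton X-100. Run in duplicate.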
Assay [6] concerns the target PRMT6 (Homo sapiens, UniProt Q96LA8). As to the kind of experiment: selectivity of YD1113/YD1290 on PRMT panel, PRMT6. The settings on record: 10 μM; PRMT panel. The procedure, abridged:
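Radioactivity-based PRMT activity assay run by an external provider; YD1113 profiled across the PRMT panel at 10 μM.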

The target of assay [7] is PRMT3 (Homo sapiens, UniProt O60678). The assay is described as follows: inhibition mechanism study on PRMT3, SAHH-coupled fluorescence. Further details: PRMT3 (residues 211-531) was cloned into the pET28a-MHL expression vector; tag of the pET28a-MHL vector (not described); made in house; host or cells: Escherichia coli BL21(DE3). The following applies: role: inhibitor. The protocol: The inhibition mechanism of YD1113 on PRMT3 was studied with the fluorescence-based SAHH-coupled assay. Varying concentrations of SAM (from 30 to 240 μM) with 30 μM fixed concentration of H4-21 or varying concentration of H4-21 (from 15 to 240 μM) with 30 μM fixed concentration of SAM were included in reactions at concentration of YD1113 ranging from 1.5 nM to 100 μM.
PRMT3 (Homo sapiens, UniProt O60678), sequence (O60678 211-531): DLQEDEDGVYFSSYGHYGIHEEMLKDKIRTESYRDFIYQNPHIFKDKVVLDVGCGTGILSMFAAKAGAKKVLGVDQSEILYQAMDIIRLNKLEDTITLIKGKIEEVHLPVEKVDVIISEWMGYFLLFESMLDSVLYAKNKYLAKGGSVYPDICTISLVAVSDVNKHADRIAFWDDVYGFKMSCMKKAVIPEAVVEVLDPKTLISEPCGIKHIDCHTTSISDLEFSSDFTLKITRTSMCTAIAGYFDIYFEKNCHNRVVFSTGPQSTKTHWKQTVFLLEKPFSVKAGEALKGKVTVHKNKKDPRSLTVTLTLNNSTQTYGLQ
All the IC50 values were determined in triplicate. Fluorescence was monitored on a BMG CLARIOstar microplate reader with excitation 380 nm and emission 505 nm. Data were processed by using GraphPad Prism software 8.0.
The sensitivity of YD1113 to the steric effects in the above SAR studies (Table 1; FIG. 9) is inexplicable by a relatively open and tolerable peptide substrate binding channel of PRMTs. (Tewary et al. 2019) This contradiction prompted the hypothesis that YD1113 binds to an alternative pocket rather than acts as a bisubstrate analogue to reach the peptide binding pocket. This hypothesis was tested by investigating its inhibition mechanism with a SAHH-coupled fluorescence-based assay. (Richardson et al. 2015) The IC50 values of YD1113 remained constant with the increased ratio of peptide/Km (FIG. 3a-b) while increasing linearly with the ratio of SAM/Km (FIG. 3c-d). […]

PRMT8, sequence (Q9NR22 whole entry, species assumed): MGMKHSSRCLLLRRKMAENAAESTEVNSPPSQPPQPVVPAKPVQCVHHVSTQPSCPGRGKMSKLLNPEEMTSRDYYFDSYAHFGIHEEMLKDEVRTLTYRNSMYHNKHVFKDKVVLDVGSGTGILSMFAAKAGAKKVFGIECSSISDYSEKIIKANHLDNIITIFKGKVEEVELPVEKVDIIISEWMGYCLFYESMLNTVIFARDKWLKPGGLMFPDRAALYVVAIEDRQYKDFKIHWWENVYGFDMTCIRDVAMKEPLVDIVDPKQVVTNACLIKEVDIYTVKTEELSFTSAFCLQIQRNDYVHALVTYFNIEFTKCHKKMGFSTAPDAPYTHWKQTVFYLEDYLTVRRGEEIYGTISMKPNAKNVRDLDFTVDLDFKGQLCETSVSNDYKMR
PRMT6, sequence (Q96LA8 whole entry, species assumed): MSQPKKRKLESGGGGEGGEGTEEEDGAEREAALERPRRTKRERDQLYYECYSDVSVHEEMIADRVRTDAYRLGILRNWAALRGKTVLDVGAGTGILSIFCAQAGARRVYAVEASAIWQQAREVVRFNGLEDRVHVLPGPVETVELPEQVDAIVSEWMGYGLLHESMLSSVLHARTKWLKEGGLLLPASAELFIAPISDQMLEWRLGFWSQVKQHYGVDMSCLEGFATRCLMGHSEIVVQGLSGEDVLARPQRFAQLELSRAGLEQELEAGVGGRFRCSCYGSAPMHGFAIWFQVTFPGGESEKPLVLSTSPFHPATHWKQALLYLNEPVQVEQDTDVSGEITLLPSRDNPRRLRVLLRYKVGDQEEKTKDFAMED

As for `Nc1ncnc2c1ncn2[C@@H]1O[C@H](CSCCNC(=O)NCc2ccccc2)[C@@H](O)[C@H]1O` [Compound 7a, 1-(2-((((2S,3S,4R,5R)-5-(6-amino-9H-purin-9-yl)-3,4-dihydroxytetrahydrofuran-2-yl)methyl)thio)ethyl)-3-benzylurea], the results for the inhibition at 10 µM in assay [1], in assay [3] and in assay [6] were 97%, 12% and less than 35%, respectively. The IC50 (as a rule, the midpoint of a concentration-inhibition curve) is 140 ± 13 nM in assay [2], 138 to 351 nM in assay [4] and 0.52 ± 0.07 µM in assay [5]. The “inhibition mechanism vs peptide substrate, PRMT3” value in assay [7] (H4-21 15 to 240 μM, SAM 30 μM fixed) is recorded as “noncompetitive to the peptide substrate”. For the same compound, the “inhibition mechanism vs SAM, PRMT3” value in assay [7] (SAM 30 to 240 μM, H4-21 30 μM fixed) is “competitive to SAM”.
